Assay results as given in article PMC10666548, “Identification of the bacterial metabolite aerugine as potential trigger of human dopaminergic neurodegeneration” (Environment international, 2023).
Entries after “also recorded” stand apart in the source; their conditions may differ.

Experiments:
[1] = tested on: dopamine neurons of C. elegans BY200; assay: C. elegans dopaminergic neurodegeneration scoring (GFP-labelled neurons); type: in vivo, Caenorhabditis elegans; settings: 48 h exposure
Protocol: The strain BY200 Pdat-1::gfp (vtIs1), dat-1::GFP(vtls1) was kindly provided by the Blakely laboratory, Vanderbilt University Medical Center and the strain Punc-25:GFP was obtained from the Caenorhabditis Genetics Center (CGC, University of Minnesota, Minneapolis, MN, USA). The worms were maintained in nematode growth medium (NGM) plates that contain: 3 g/l NaCl, 17 g/l agar, 2.5 g/l peptone, 1 mM CaCl2, 5 mg/l cholesterol, 1 mM MgSO4, 25 mM potassium phosphate buffer (pH 6.0) with 1.25 ml nystatin and 50 mg/l streptomycin sulfate) and Escherichia coli (E. coli) OP50 strain was used as food ([Brenner, 1974]). […]
On day 2 and day 8, approximately, 20–30 worms per treatment were picked onto slides prepped with a 3% agarose pad, anesthetized with 5 μl of 3 mM levamisole hydrochloride ([Sulston et al., 1975]) and observed under an Olympus BX41 fluorescence microscope to determine morphology status according to novel Likert-like scale of degeneration as previously described ([Benedetto et al., 2010]).
Fig. 5. […] They were exposed to different aerugine concentrations and counted every 24 h. […] Differences on a given day were analyzed by ANOVA and found to be non-significant. […] The GFP-labelled neurons of 20–30 worms per condition were analyzed and scored for specific neurodegeneration. […] These scores were assessed to quantify the dopaminergic neurodegeneration caused be aerugine in vivo. […]

5HT2B receptor = tested on: 5HT2B receptor; design: method as in Lin et al., 2017; settings: ref Lin et al., 2017; cited from earlier work
[2] = tested on: peripheral nervous system cells (iPSC-derived peripheral neurons); assay: iPSC-derived neuron viability, calcein-AM & H-33342 imaging; type: cell-based, human; settings: 24 h, concentrations up to 100 μM
Protocol: The human iPSC (Sigma iPSC0028 (EPITHELIAL-1, #IPSC0028) were maintained and differentiated towards immature dorsal root ganglia neurons according to [Hoelting et al. (2016)] ([Hoelting et al., 2016]). Briefly, a total of 90,000 cells/cm^2 were seeded on Matrigel. The differentiation was initiated with neural differentiation medium (KSR-S; Dulbecco’s modified Eagle’s medium [DMEM/F12] containing 15% knockout serum replacement, 1 × Glutamax, 1 × nonessential amino acids, and 50 μM ß-mercaptoethanol) supplemented with 17.5 ng/ml noggin, 10 μM SB-431642 from day of stem cell differentiation (DoD) DoD0 to DoD5. Starting on DoD2 CHIR99021 (1.5 μM), SU5402 (5 μM) and DAPT (5 μM) were added. […]
The assays were performed as described previously ([Hoelting et al., 2016]; [Klima et al., 2021]; [Krug et al., 2013]). […] 24 h after treatment the Calcein/Hoechst readout was performed.
Neurite area (NA) and viability (V) were assessed as described previously ([Stiegler et al., 2011]). […] Image acquisition was performed using an Array-Scan VTI HCS Reader (Cellomics, PA, USA) equipped with a Hamamatsu ORCA-ER camera. […]

In the case of OCC1CSC(c2ccccc2O)=N1 (stereo not shown) [aerugine, 2-[4-(hydroxymethyl)-4,5-dihydro-1,3-thiazol-2-yl]phenol], the “DAergic neurons that lost their normal (fully) healthy phenotype” value [1] is listed as “Up to 50%”, the “degeneration of DA neurons” value ([1]; L4 worms) is listed as “concentration-dependent degeneration of DA neurons; also recorded: specific neurodegeneration was observed” and the “displacement of radioactive lysergic acid diethylamide” value (5HT2B receptor) is listed as “displaced radioactive lysergic acid diethylamide at low μM concentrations”. For the same compound, the “effect on cell viability” value [2] was “no effect”.
